Data: US20070244110A1, “Treatment of prostate cancer, melanoma or hepatic cancer” (ZENYAKU KOGYO KABUSHIKI KAISHA, priority 2006, published 2007)

Key:
Hepatoma HepG2 cells = assay: In vitro anti-tumor experiment, growth inhibition of HepG2 cells; format: cell-based; conditions: HepG2, 72 hours incubation
Experimental: (§1) Hepatoma HepG2 cells were cultured in a MEM culture medium (containing 10% fetal bovine serum, 25 mM HEPES and 0.1 mg/ml kanamycin) under conditions of 5% carbon dioxide at 37° C. HepG2 cells were harvested as single free cells by a tripsin/EDTA treatment in the logarithmic growth phase, and a cell suspension solution consisted of 2×10^4 cells per ml was prepared with MEM culture medium (containing 10% fetal bovine serum, 25 mM HEPES and 0.1 mg/ml kanamycin). The test compound was dissolved in DMSO, then diluted with RPMI1640 culture medium (containing 10% fetal bovine serum, 25 mM HEPES, 0.1 mg/ml kanamycin), and adjusted to a concentration of 2.0×10^−9 to 2.0×10^−3 M.
(§2) 0.1 ml of the cell suspension solution was put in each well of a 96-well plate, then cultured for 24 hours to make the cells adhere to the microplates, and 0.1 ml of the test compound was added in each well and incubated for 72 hours under conditions of 5% carbon dioxide at 37° C. The 50% growth inhibition concentration (GI50 value μM) was computed from the growth inhibition rates at various test sample concentrations, and the results are shown in Table 1.

[1] = test system: PC-3 prostate cancer cells; assay: In vivo anti-tumor experiment, PC-3 human tumor xenograft; set-up: species or system BALB/c nude mice; conditions: 6 days a week for two weeks, day 14
Experimental: (§3) Human tumor xenografts were generated with PC-3 prostate cancer cells, and WiDr colon cancer cells, and were grown as subcutaneous tumors in mutant BALB/c nude mice. Each nude mouse was subcutaneously inoculated with a tumor fragment of 2 mm by 2 mm by 2 mm. When tumors reached a volume of 100-300 mm^3, animals were divided randomly into test groups of five mice (day 0). The samples were orally administered at a dosage of 100, 200 or 400 mg/kg once daily, 6 days a week for two weeks. The length (L) and width (W) of the subcutaneous tumor mass were measured by calipers in live mice, and the tumor volume (TV) was calculated as: TV=(L×W^2)/2. The tumor volume at day n was expressed as relative tumor volume (RTV), according to the formula RTV=TVn/TV0, where TVn is the tumor volume at day n, and TV0 is the tumor volume at day 0. T/C% on day 14 was determined by calculating RTV as: T/C%=100×(mean RTV of treated group)/(mean RTV of control group). The specimens in which T/C (%) was 50% or less and having a significant difference at P value 1% on one side in a Mann-Whitney U test were evaluated as effective (+).

WiDr colon cancer cells = assay: In vivo anti-tumor experiment, WiDr human tumor xenograft (reference); set-up: species or system BALB/c nude mice; conditions: 6 days a week for two weeks, day 14
Experimental: as §3

B16F10 melanoma cells = assay: In vitro anti-tumor experiment, growth inhibition of B16F10 cells; format: cell-based; conditions: B16F10, 72 hours incubation
Experimental: as §1, §2
(§4) When using cells other than HepG2 cells, the following culture media were used instead of the MEM culture medium, and the following single cell suspensions were prepared with the following media:
RPMI1640 culture medium containing 10% fetal bovine serum, 1×10^4 cell suspension

[2] = test system: PC-3 prostate cancer cells; assay: In vitro anti-tumor experiment, growth inhibition of PC-3 cells; format: cell-based; conditions: PC-3, 72 hours incubation
Experimental: as §1, §2, §4
PC-3 prostate cancer cells:
F12K culture medium containing 10% fetal bovine serum, 2×10^4 cell suspension

Row | SMILES | GI50 (Hepatoma HepG2 cells; Homo sapiens) [nM] | GI50 (B16F10 melanoma cells; Mus musculus, B16-F10) [nM] | GI50 ([2]; Homo sapiens) [nM] | Evaluation effective (+), Prostate Cancer ([1]; 200 mg/kg orally once daily) | T/C (%) Prostate Cancer ([1]; 200 mg/kg orally once daily) [%] | Evaluation effective (+), Colon Cancer (reference) (WiDr colon cancer cells; 200 mg/kg orally once daily) | T/C (%) Colon Cancer (reference) (WiDr colon cancer cells; 200 mg/kg orally once daily) [%] | also measured
1 | FC(F)c1nc2ccccc2n1-c1nc(N2CCOCC2)nc(N2CCOCC2)n1 [Compound 1, 2-(2-difluoromethylbenzimidazol-1-yl)-4,6-dimorpholino-1,3,5-triazine] | 1150 | 310 | 240 | – | – | – | – | Evaluation effective (+), Prostate Cancer ([1]; 400 mg/kg orally once daily): + (T/C (%) was 50% or less and having a significant difference at P value 1% on one side in a Mann-Whitney U test were evaluated as effective (+)); T/C (%) Prostate Cancer ([1]; 400 mg/kg orally once daily): 24.8%; Evaluation effective (+), Colon Cancer (reference) (WiDr colon cancer cells; 400 mg/kg orally once daily): + (T/C (%) was 50% or less and having a significant difference at P value 1% on one side in a Mann-Whitney U test were evaluated as effective (+)); T/C (%) Colon Cancer (reference) (WiDr colon cancer cells; 400 mg/kg orally once daily): 33.2%
2 | COc1cccc2c1nc(C(F)F)n2-c1nc(N2CCOCC2)nc(N2CCOCC2)n1 [Compound 4, 2-(2-difluoromethyl-4-methoxybenzimidazol-1-yl)-4,6-dimorpholino-1,3,5-triazine] | 340 | 250 | 190 | – | – | – | – | –
3 | COc1cccc2c1nc(C(F)F)n2-c1nc(N2CCOCC2)cc(N2CCOC(C)(C)C2)n1 [Compound 5, 2-(2-difluoromethyl-4-methoxybenzimidazol-1-yl)-4-(2,2-dimethylmorpholino)-6-morpholinopyrimidine] | – | – | – | + (T/C (%) was 50% or less and having a significant difference at P value 1% on one side in a Mann-Whitney U test were evaluated as effective (+)) | 39.1 | – | – | Evaluation effective (+), Colon Cancer (reference) (WiDr colon cancer cells; 100 mg/kg orally once daily): + (T/C (%) was 50% or less and having a significant difference at P value 1% on one side in a Mann-Whitney U test were evaluated as effective (+)); melting point: 160 to 162 °C
4 | COc1cccc2c1nc(C(F)F)n2-c1nc(N2CCOCC2)cc(N2C[C@@H](C)O[C@@H](C)C2)n1 [Compound 6, 2-(2-difluoromethyl-4-methoxybenzimidazol-1-yl)-4-(cis-2,6-dimethylmorpholino)-6-moropholinopyrimidine] | – | – | – | + (T/C (%) was 50% or less and having a significant difference at P value 1% on one side in a Mann-Whitney U test were evaluated as effective (+)) | 16.2 | + (T/C (%) was 50% or less and having a significant difference at P value 1% on one side in a Mann-Whitney U test were evaluated as effective (+)) | 29.5 | GI50 (Hepatoma HepG2 cells): 890 nM; Evaluation effective (+), Prostate Cancer ([1]; 100 mg/kg orally once daily): + (T/C (%) was 50% or less and having a significant difference at P value 1% on one side in a Mann-Whitney U test were evaluated as effective (+)); T/C (%) Prostate Cancer ([1]; 100 mg/kg orally once daily): 32.3%; Evaluation effective (+), Colon Cancer (reference) (WiDr colon cancer cells; 100 mg/kg orally once daily): + (T/C (%) was 50% or less and having a significant difference at P value 1% on one side in a Mann-Whitney U test were evaluated as effective (+)); T/C (%) Colon Cancer (reference) (WiDr colon cancer cells; 100 mg/kg orally once daily): 24.8%; GI50 (B16F10 melanoma cells): 1210 nM; GI50 [2]: 540 nM
5 | Oc1cccc2c1nc(C(F)F)n2-c1nc(N2CCOCC2)nc(N2CCOCC2)n1 [Compound 8, 2-(2-difluoromethyl-4-hydroxybenzimidazol-1-yl)-4,6-dimorpholino-1,3,5-triazine] | 120 | 18 | 10 | – | – | – | – | –
6 | OCC1CCCN1c1nc(N2CCOCC2)nc(-n2c(C(F)F)nc3c(O)cccc32)n1 (centres unmarked) [Compound 9, 2-(2-difluoromethyl-4-hydroxybenzimidazol-1-yl)-4-(2-hydroxymethylpyrrolidin-1-yl)-6-morpholino-1,3,5-triazine] | 150 | 63 | 20 | + (T/C (%) was 50% or less and having a significant difference at P value 1% on one side in a Mann-Whitney U test were evaluated as effective (+)) | 31.8 | + (T/C (%) was 50% or less and having a significant difference at P value 1% on one side in a Mann-Whitney U test were evaluated as effective (+)) | 49.6 | –
7 | CC1(C)COCCN1c1cc(N2CCOCC2)nc(-n2c(C(F)F)nc3c(O)cccc32)n1 [Compound 10, 2-(2-difluoromethyl-4-hydroxybenzimidazol-1-yl)-4-(3,3-dimethylmoropholino)-6-morpholinopyrimidine] | – | – | – | + (T/C (%) was 50% or less and having a significant difference at P value 1% on one side in a Mann-Whitney U test were evaluated as effective (+)) | 38.1 | + (T/C (%) was 50% or less and having a significant difference at P value 1% on one side in a Mann-Whitney U test were evaluated as effective (+)) | 46.2 | GI50 (Hepatoma HepG2 cells): 90 nM; Evaluation effective (+), Prostate Cancer ([1]; 400 mg/kg orally once daily): + (T/C (%) was 50% or less and having a significant difference at P value 1% on one side in a Mann-Whitney U test were evaluated as effective (+)); T/C (%) Prostate Cancer ([1]; 400 mg/kg orally once daily): 20.8%; T/C (%) Colon Cancer (reference) (WiDr colon cancer cells; 400 mg/kg orally once daily): 63.1%; GI50 (B16F10 melanoma cells): 42 nM; GI50 [2]: 20 nM
8 | CC(=O)Oc1cccc2c1nc(C(F)F)n2-c1nc(N2CCOCC2)cc(N2C[C@@H](C)O[C@@H](C)C2)n1 [Compound 13, 2-(2-difluoromethyl-4-acetoxybenzimidazol-1-yl)-4-(cis-2,6-dimethylmoropholino)-6-morpholinopyrimidine] | – | – | – | – | 65.4 | – | – | –
9 | COC(=O)Oc1cccc2c1nc(C(F)F)n2-c1nc(N2CCOCC2)cc(N2CCOC(C)(C)C2)n1 [Compound 14, 2-(2-difluoromethyl-4-methoxycarbonyloxybenzimidazol-1-yl)-4-(2,2-dimethyl-moropholino)-6-morpholinopyrimidine] | – | – | – | + (T/C (%) was 50% or less and having a significant difference at P value 1% on one side in a Mann-Whitney U test were evaluated as effective (+)) | 47.3 | – | – | –
10 | CCOC(=O)Oc1cccc2c1nc(C(F)F)n2-c1nc(N2CCOCC2)cc(N2C[C@@H](C)O[C@@H](C)C2)n1 [Compound 15, 2-(4-ethoxycarbonyloxy-2-difluoromethylbenzimidazol-1-yl)-4-(cis-2,6-dimethyl-moropholino)-6-morpholinopyrimidine] | – | – | – | + (T/C (%) was 50% or less and having a significant difference at P value 1% on one side in a Mann-Whitney U test were evaluated as effective (+)) | 47.5 | – | – | –
